Where two headings read alike, the source gives them in different places.
What was measured:
PIP5K1A = target: T1, PIP5K1A (Homo sapiens, UniProt Q99755); experiment: SelectScreen Adapta; type: biochemical; conditions: INX-0315 at 100nM
T1 construct: purchased Thermo Fisher Scientific SelectScreen (plus Nanosyn / Reaction Biology for CDK/cyclin lines)
From the text: (§1) INX-315 was first evaluated in the SelectScreen Biochemical Kinase Profiling at Thermo Fisher Scientific (Madison, WI). The primary screen consisted of INX-315 dosed at a single concentration of 100 nmol/L in 1% DMSO across each platform within the SelectScreen array of assays, LanthaScreen Eu Kinase Binding Assay; AdaptaScreen; and Z'LyteScreen using preestablished conditions at Thermo Fisher Scientific as shown in Supplementary Table S2. […] The follow-up screen consisted of 10-point dose–response curves for INX-315 from 1 µmol/L to 0.0495 nmol/L.

PI4KB (PI4K beta) = target: T2, PI4KB (PI4K beta) (Homo sapiens, UniProt Q9UBF8); experiment: SelectScreen Adapta; type: biochemical; conditions: INX-0315 at 100nM
T2 construct: purchased Thermo Fisher Scientific SelectScreen (plus Nanosyn / Reaction Biology for CDK/cyclin lines)
From the text: as §1

CAMK1 (CaMK1) = target: T3, CAMK1 (CaMK1) (Homo sapiens, UniProt Q14012); experiment: SelectScreen Adapta; type: biochemical; conditions: INX-0315 at 100nM
T3 construct: purchased Thermo Fisher Scientific SelectScreen (plus Nanosyn / Reaction Biology for CDK/cyclin lines)
From the text: as §1

CDK4/cyclin D1 = target: T4, CDK4/cyclin D1 (Homo sapiens, UniProt P11802); experiment: SelectScreen Adapta; type: biochemical; conditions: INX-0315 at 100nM
T4 construct: purchased ThermoFisher PV4400
From the text: as §1

CDK7/cyclin H/MNAT1 = target: T5, CDK7/cyclin H/MNAT1 (Homo sapiens, UniProt P50613); experiment: SelectScreen Adapta; type: biochemical; conditions: INX-0315 at 100nM
T5 construct: purchased Thermo Fisher Scientific SelectScreen (plus Nanosyn / Reaction Biology for CDK/cyclin lines)
T5 sequence (P50613 whole entry): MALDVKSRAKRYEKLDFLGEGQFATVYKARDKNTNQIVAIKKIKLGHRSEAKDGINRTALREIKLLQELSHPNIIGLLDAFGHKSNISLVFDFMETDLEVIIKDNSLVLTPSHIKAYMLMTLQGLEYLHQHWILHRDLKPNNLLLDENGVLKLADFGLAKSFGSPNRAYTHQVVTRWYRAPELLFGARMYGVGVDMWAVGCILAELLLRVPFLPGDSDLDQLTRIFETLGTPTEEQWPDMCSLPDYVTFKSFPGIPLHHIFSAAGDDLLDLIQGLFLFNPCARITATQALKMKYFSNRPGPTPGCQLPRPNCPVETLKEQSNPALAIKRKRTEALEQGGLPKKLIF
T5 sequence (P51946 whole entry partner): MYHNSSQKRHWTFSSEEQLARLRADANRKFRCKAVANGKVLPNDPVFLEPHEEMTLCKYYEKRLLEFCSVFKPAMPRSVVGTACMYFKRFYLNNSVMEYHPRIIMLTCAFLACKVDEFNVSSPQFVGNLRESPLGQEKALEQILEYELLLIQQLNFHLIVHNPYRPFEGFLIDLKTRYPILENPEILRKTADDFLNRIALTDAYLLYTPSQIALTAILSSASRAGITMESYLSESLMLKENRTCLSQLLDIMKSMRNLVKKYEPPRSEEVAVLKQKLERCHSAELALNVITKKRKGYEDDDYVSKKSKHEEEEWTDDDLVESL
T5 sequence (P51948 whole entry partner): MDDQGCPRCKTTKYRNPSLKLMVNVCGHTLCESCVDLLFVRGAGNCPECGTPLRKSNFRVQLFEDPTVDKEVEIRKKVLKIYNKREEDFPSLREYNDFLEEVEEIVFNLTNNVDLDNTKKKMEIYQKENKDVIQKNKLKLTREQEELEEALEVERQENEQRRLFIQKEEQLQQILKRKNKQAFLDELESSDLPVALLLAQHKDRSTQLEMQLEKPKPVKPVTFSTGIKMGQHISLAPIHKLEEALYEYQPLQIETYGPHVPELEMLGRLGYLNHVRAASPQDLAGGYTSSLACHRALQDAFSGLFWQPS
From the text: as §1

[1] = target: T6, PIK3CA/PIK3R3 (p110 alpha/p55 gamma) (Homo sapiens, UniProt P42336); experiment: SelectScreen Adapta; type: biochemical; conditions: INX-0315 at 100nM
T6 construct: purchased Thermo Fisher Scientific SelectScreen (plus Nanosyn / Reaction Biology for CDK/cyclin lines)
From the text: as §1

PIP5K1B = target: T7, PIP5K1B (Homo sapiens, UniProt O14986); experiment: SelectScreen Adapta; type: biochemical; conditions: INX-0315 at 100nM
T7 construct: purchased Thermo Fisher Scientific SelectScreen (plus Nanosyn / Reaction Biology for CDK/cyclin lines)
T7 sequence (O14986 whole entry): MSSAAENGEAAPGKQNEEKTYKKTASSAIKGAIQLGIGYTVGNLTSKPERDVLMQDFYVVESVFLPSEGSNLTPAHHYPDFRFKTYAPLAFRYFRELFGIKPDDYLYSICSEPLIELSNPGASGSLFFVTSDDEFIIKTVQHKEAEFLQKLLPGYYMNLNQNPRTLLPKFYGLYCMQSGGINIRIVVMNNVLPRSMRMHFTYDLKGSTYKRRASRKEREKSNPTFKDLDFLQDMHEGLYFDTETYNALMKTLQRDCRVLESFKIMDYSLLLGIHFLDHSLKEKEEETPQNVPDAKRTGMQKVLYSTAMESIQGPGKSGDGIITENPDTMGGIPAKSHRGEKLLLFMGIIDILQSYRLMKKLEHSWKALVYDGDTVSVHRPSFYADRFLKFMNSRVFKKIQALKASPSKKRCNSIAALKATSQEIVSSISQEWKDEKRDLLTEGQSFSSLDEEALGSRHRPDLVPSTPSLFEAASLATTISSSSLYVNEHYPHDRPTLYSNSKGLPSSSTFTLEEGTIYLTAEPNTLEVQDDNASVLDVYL
From the text: as §1

PIK3CG (p110 gamma) = target: T8, PIK3CG (p110 gamma) (Homo sapiens, UniProt P48736); experiment: SelectScreen Adapta; type: biochemical; conditions: INX-0315 at 100nM
T8 construct: purchased Thermo Fisher Scientific SelectScreen (plus Nanosyn / Reaction Biology for CDK/cyclin lines)
From the text: as §1

SPHK2 = target: T9, SPHK2 (Homo sapiens, UniProt Q9NRA0); experiment: SelectScreen Adapta; type: biochemical; conditions: INX-0315 at 100nM
T9 construct: purchased Thermo Fisher Scientific SelectScreen (plus Nanosyn / Reaction Biology for CDK/cyclin lines)
From the text: as §1

CDK4/cyclin D3 = target: T10, CDK4/cyclin D3 (Homo sapiens, UniProt P11802); experiment: SelectScreen Adapta; type: biochemical; conditions: INX-0315 at 100nM
T10 construct: purchased Thermo Fisher Scientific SelectScreen (plus Nanosyn / Reaction Biology for CDK/cyclin lines)
From the text: as §1

PIK3C3 (hVPS34) = target: T11, PIK3C3 (hVPS34) (Homo sapiens, UniProt Q8NEB9); experiment: SelectScreen Adapta; type: biochemical; conditions: INX-0315 at 100nM
T11 construct: purchased Thermo Fisher Scientific SelectScreen (plus Nanosyn / Reaction Biology for CDK/cyclin lines)
From the text: as §1

CHUK (IKK alpha) = target: T12, CHUK (IKK alpha) (Homo sapiens, UniProt O15111); experiment: SelectScreen Adapta; type: biochemical; conditions: INX-0315 at 100nM
T12 construct: purchased Thermo Fisher Scientific SelectScreen (plus Nanosyn / Reaction Biology for CDK/cyclin lines)
From the text: as §1

[2] = target: T13, PIK3CA/PIK3R1 (p110 alpha/p85 alpha) (Homo sapiens, UniProt P42336); experiment: SelectScreen Adapta; type: biochemical; conditions: INX-0315 at 100nM
T13 construct: purchased Thermo Fisher Scientific SelectScreen (plus Nanosyn / Reaction Biology for CDK/cyclin lines)
From the text: as §1

CDK6/cyclin D1 = target: T14, CDK6/cyclin D1 (Homo sapiens, UniProt Q00534); experiment: SelectScreen Adapta; type: biochemical; conditions: INX-0315 at 100nM
T14 construct: purchased Thermo Fisher Scientific SelectScreen (plus Nanosyn / Reaction Biology for CDK/cyclin lines)
From the text: as §1

PI4KA (PI4K alpha) = target: T15, PI4KA (PI4K alpha) (Homo sapiens, UniProt P42356); experiment: SelectScreen Adapta; type: biochemical; conditions: INX-0315 at 100nM
T15 construct: purchased Thermo Fisher Scientific SelectScreen (plus Nanosyn / Reaction Biology for CDK/cyclin lines)
From the text: as §1

GSG2 (Haspin) = target: T16, GSG2 (Haspin) (Homo sapiens, UniProt Q8TF76); experiment: SelectScreen Adapta; type: biochemical; conditions: INX-0315 at 100nM
T16 construct: purchased Thermo Fisher Scientific SelectScreen (plus Nanosyn / Reaction Biology for CDK/cyclin lines)
From the text: as §1

CDK9/cyclin T1 = target: T17, CDK9/cyclin T1 (Homo sapiens, UniProt P50750); experiment: SelectScreen Adapta; type: biochemical; conditions: INX-0315 at 100nM
T17 construct: purchased Carna 04-110
From the text: as §1

PIK3C2A (PI3K-C2 alpha) = target: T18, PIK3C2A (PI3K-C2 alpha) (Homo sapiens, UniProt O00443); experiment: SelectScreen Adapta; type: biochemical; conditions: INX-0315 at 100nM
T18 construct: purchased Thermo Fisher Scientific SelectScreen (plus Nanosyn / Reaction Biology for CDK/cyclin lines)
T18 sequence (O00443 whole entry): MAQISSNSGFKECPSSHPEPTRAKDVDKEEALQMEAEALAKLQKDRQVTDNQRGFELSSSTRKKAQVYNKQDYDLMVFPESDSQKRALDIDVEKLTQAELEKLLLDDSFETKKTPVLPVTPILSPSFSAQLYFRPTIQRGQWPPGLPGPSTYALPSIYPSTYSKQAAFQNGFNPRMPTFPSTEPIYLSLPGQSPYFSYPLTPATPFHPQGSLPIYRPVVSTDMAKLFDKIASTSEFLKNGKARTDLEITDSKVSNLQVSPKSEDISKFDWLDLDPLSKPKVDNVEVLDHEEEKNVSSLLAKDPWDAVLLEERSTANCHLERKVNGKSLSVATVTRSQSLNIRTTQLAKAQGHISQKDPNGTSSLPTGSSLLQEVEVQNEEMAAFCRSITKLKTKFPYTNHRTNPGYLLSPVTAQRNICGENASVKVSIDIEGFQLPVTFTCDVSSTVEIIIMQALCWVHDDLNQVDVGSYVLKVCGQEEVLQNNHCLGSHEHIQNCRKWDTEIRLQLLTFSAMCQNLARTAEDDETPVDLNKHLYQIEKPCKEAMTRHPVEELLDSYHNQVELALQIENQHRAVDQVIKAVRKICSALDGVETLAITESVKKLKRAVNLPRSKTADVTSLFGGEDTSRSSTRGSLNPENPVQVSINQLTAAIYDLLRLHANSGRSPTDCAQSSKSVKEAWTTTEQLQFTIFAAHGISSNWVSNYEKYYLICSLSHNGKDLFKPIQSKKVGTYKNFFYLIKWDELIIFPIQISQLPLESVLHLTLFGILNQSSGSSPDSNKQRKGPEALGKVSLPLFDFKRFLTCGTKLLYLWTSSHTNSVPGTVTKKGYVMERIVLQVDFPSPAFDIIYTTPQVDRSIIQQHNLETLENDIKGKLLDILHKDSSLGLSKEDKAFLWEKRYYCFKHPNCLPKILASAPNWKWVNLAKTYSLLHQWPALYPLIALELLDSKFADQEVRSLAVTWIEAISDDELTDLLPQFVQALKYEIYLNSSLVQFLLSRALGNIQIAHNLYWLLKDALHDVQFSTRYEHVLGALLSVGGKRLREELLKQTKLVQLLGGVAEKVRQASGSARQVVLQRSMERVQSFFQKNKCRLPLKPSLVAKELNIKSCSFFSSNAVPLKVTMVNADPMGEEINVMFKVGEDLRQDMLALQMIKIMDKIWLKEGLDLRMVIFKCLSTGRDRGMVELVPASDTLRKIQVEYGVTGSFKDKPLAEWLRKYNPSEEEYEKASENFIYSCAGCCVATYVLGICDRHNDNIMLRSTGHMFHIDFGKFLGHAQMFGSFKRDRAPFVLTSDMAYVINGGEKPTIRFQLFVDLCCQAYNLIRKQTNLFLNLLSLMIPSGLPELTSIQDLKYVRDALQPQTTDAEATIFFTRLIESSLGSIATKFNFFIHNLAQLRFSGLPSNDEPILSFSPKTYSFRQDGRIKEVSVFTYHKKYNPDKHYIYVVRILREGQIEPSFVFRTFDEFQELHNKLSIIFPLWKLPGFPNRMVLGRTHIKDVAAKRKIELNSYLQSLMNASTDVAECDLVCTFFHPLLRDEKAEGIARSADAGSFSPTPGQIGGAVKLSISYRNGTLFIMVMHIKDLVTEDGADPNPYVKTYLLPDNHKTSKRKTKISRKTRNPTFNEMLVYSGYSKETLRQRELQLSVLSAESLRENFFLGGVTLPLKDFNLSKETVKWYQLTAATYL
From the text: as §1

[3] = target: T19, PIK3CB/PIK3R2 (p110 beta/p85 beta) (Homo sapiens, UniProt P42338); experiment: SelectScreen Adapta; type: biochemical; conditions: INX-0315 at 100nM
T19 construct: purchased Thermo Fisher Scientific SelectScreen (plus Nanosyn / Reaction Biology for CDK/cyclin lines)
From the text: as §1

PIK3C2B (PI3K-C2 beta) = target: T20, PIK3C2B (PI3K-C2 beta) (Homo sapiens, UniProt O00750); experiment: SelectScreen Adapta; type: biochemical; conditions: INX-0315 at 100nM
T20 construct: purchased Thermo Fisher Scientific SelectScreen (plus Nanosyn / Reaction Biology for CDK/cyclin lines)
From the text: as §1

PIP4K2A = target: T21, PIP4K2A (Homo sapiens, UniProt P48426); experiment: SelectScreen Adapta; type: biochemical; conditions: INX-0315 at 100nM
T21 construct: purchased Thermo Fisher Scientific SelectScreen (plus Nanosyn / Reaction Biology for CDK/cyclin lines)
From the text: as §1

IRAK1 = target: T22, IRAK1 (Homo sapiens, UniProt P51617); experiment: SelectScreen Adapta; type: biochemical; conditions: INX-0315 at 100nM
T22 construct: purchased Thermo Fisher Scientific SelectScreen (plus Nanosyn / Reaction Biology for CDK/cyclin lines)
From the text: as §1

[4] = target: T23, PIK3CD/PIK3R1 (p110 delta/p85 alpha) (Homo sapiens, UniProt O00329); experiment: SelectScreen Adapta; type: biochemical; conditions: INX-0315 at 100nM
T23 construct: purchased Thermo Fisher Scientific SelectScreen (plus Nanosyn / Reaction Biology for CDK/cyclin lines)
T23 sequence (O00329 whole entry): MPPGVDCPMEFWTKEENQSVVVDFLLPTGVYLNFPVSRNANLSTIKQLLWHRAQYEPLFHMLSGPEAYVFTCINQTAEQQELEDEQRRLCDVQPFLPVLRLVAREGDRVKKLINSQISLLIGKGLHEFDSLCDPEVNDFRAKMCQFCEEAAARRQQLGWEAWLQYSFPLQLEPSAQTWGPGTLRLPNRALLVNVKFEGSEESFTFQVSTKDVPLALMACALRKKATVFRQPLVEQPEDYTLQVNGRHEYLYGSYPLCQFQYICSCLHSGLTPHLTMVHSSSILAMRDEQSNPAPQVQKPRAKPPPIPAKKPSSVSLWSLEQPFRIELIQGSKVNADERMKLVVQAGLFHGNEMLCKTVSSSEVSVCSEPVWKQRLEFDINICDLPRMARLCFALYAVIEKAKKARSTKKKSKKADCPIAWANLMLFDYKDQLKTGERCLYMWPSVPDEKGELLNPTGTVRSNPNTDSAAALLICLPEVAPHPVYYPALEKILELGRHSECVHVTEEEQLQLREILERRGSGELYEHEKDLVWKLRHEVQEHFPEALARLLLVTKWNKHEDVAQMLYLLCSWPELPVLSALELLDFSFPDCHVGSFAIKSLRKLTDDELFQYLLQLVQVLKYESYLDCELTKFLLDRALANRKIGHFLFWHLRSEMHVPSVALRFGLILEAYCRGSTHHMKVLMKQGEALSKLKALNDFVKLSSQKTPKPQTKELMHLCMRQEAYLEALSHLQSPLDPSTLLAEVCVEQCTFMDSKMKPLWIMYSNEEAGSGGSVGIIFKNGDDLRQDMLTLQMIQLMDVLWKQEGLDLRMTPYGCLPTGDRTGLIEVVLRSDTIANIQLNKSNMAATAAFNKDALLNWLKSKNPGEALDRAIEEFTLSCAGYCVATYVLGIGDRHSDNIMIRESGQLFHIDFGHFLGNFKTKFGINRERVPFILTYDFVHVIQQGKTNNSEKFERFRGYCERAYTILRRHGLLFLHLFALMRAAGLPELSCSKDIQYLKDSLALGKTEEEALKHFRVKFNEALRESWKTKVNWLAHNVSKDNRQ
T23 sequence (P27986 whole entry partner): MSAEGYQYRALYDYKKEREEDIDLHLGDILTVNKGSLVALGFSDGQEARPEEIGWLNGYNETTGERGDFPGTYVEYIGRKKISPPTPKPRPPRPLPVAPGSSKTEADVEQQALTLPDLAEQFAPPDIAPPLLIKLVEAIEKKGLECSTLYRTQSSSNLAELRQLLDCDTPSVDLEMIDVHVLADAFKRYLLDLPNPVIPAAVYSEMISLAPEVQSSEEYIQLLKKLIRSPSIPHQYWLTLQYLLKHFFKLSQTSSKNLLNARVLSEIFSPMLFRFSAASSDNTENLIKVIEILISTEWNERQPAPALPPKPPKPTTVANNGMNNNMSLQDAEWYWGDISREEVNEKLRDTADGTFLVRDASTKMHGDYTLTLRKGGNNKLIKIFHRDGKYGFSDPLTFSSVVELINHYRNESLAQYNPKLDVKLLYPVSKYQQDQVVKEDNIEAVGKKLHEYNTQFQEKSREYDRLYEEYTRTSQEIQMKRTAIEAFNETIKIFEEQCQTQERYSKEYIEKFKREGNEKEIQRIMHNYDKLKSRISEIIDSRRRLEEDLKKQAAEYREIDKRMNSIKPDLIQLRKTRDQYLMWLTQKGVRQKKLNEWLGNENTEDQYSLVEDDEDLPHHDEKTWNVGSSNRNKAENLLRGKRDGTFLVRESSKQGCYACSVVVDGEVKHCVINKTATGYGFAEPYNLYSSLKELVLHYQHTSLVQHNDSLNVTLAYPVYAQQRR
From the text: as §1

[5] = tested on: all CCNE1-amplified lines; experiment: CellTiter Glo viability assay; type: cell-based; conditions: 144 h
Description: (§2) An exception to this is MCF7PDRCl5-1 cells which were first cultured for 5 days without palbociclib then plated as described. MCF7PDRCl5-1 cells were treated with either a dose curve of the indicated CDK4/6i or a dose curve of INX-315 + 1 µmol/L of the indicated CDK4/6i. Cell viability was determined using the CellTiter-Glo assay (Promega, G9241) following manufacturer's instructions. Plates were processed on either BioTek Synergy2 multi-mode (Agilent) or ClarioSTAR (BMG Labtech) plate readers. T47D and MCF7 cells were seeded into […] plates using BioTek 406 (Aglient) and treated with a ten-point dose concentration from 10 µmol/L to 0.3 nmol/L of INX-315 for 2× doubling times. Plates were fixed with 4% PFA and stained with Rhodamine-Phalloidin (Bio-Trend, 00027) and DAPI (5 mg/mL, Invitrogen, catalog no. D1306). Plates were imaged using CellInsight CX7 LZR and DAPI-positive cells were counted using Thermo Fisher Scientific HCS Studio Cell Analysis Software.

[6] = tested on: palbociclib-resistant MCF7 cells; experiment: CellTiter Glo viability assay; type: cell-based; conditions: Homo sapiens
Description: as §2

MKN1 = experiment: CellTiter Glo viability assay; type: cell-based; conditions: Homo sapiens, MKN-1, 144 h; MKN1 gastric carcinoma, 6 days
Description: as §2

CDK2/cyclin A/A1/E1/O = experiment: SelectScreen primary screen; type: biochemical; conditions: 100 nmol/L INX-315
From the text: as §1

[7] = tested on: CDK3/cyclin E1, CDK5 (inactive), CDK5/p25, CDK5/p35, CSF1R, MAPK15/ERK7, NTRK/TRKC, TYK2; experiment: SelectScreen primary screen; type: biochemical; conditions: 100 nmol/L INX-315
From the text: as §1

**Q.** How did the inhibition at 0.1 µM (PIP5K1A) turn out when NS(=O)(=O)c1ccc(Nc2ncc3cc4n(c3n2)C2(CCCCC2)C(=O)NN4)cc1 [INX-315] was run?
**A.** 6%

**Q.** What about the inhibition at 0.1 µM (PI4KB (PI4K beta)) of the same compound?
**A.** 2%

**Q.** And the inhibition at 0.1 µM (CAMK1 (CaMK1))?
**A.** -17%

**Q.** What about the inhibition at 0.1 µM (CDK4/cyclin D1) of the same compound?
**A.** 24%

**Q.** What about the inhibition at 0.1 µM (CDK7/cyclin H/MNAT1) of the same compound?
**A.** -3%

**Q.** And the inhibition at 0.1 µM [1]?
**A.** -2%

**Q.** What about the inhibition at 0.1 µM (PIP5K1B) of the same compound?
**A.** 38%

**Q.** And the inhibition at 0.1 µM (PIK3CG (p110 gamma))?
**A.** -8%

**Q.** And the inhibition at 0.1 µM (SPHK2)?
**A.** -19%

**Q.** What about the inhibition at 0.1 µM (CDK4/cyclin D3) of the same compound?
**A.** 22%

**Q.** What about the inhibition at 0.1 µM (PIK3C3 (hVPS34)) of the same compound?
**A.** 7%

**Q.** And the inhibition at 0.1 µM (CHUK (IKK alpha))?
**A.** -7%

**Q.** What about the inhibition at 0.1 µM [2] of the same compound?
**A.** 11%

**Q.** And the inhibition at 0.1 µM (CDK6/cyclin D1)?
**A.** 15%

**Q.** And the inhibition at 0.1 µM (PI4KA (PI4K alpha))?
**A.** -11%

**Q.** And the inhibition at 0.1 µM (GSG2 (Haspin))?
**A.** 4%

**Q.** What about the inhibition at 0.1 µM (CDK9/cyclin T1) of the same compound?
**A.** 52%

**Q.** And the inhibition at 0.1 µM (PIK3C2A (PI3K-C2 alpha))?
**A.** -1%

**Q.** And the inhibition at 0.1 µM [3]?
**A.** -14%

**Q.** And the inhibition at 0.1 µM (PIK3C2B (PI3K-C2 beta))?
**A.** -14%

**Q.** What about the inhibition at 0.1 µM (PIP4K2A) of the same compound?
**A.** 7%

**Q.** What about the inhibition at 0.1 µM (IRAK1) of the same compound?
**A.** 6%

**Q.** What about the inhibition at 0.1 µM [4] of the same compound?
**A.** -10%

**Q.** And the IC50 [5]?
**A.** 36 nM

**Q.** And the IC50 ([6]; MCF7, Supp Fig S9D, DMSO + INX-315, read-out: INX-315 IC50)?
**A.** 906 nM

**Q.** What about the IC50 ([6]; MCF7, cultured out of CDK4/6i, read-out: IC50 to INX-315) of the same compound?
**A.** < 900 nM

**Q.** What about the IC50 ([6]; MCF7, with abemaciclib (1 µmol/L), read-out: IC50 to INX-315) of the same compound?
**A.** 28 nM

**Q.** What about the IC50 ([6]; MCF7, with lerociclib (1 µmol/L), read-out: IC50 to INX-315) of the same compound?
**A.** 23 nM

**Q.** And the IC50 ([6]; MCF7, with palbociclib (1 µmol/L), read-out: IC50 to INX-315)?
**A.** 14 nM

**Q.** And the IC50 (MKN1)?
**A.** 44 nM

**Q.** What about the “inhibition of CDK2/cyclin A/A1/E1/O” value (CDK2/cyclin A/A1/E1/O) of the same compound?
**A.** ≥ 94%

**Q.** And the “inhibition of CDK3/cyclin E1, CDK5 (inactive), CDK5/p25, CDK5/p35, CSF1R, MAPK15/ERK7, NTRK/TRKC, TYK2” value [7]?
**A.** ≥ 80%

From publication PMC10905675, “INX-315, a Selective CDK2 Inhibitor, Induces Cell Cycle Arrest and Senescence in Solid Tumors” (Cancer Discovery, 2023)
